Measurements reported in ChEMBL document CHEMBL5634101, “Discovery of NLRP3 inhibitors using machine learning: Identification of a hit compound to treat NLRP3 activation-driven diseases” (Eur J Med Chem, 2023).
Calls of active or inactive are those of the source. The calls are words filed in the database; no cut-off is given here.

What was measured:
[1] = target: T1, Interferon-inducible protein AIM2 (Mus musculus) (UniProt Q91VJ1); assay: Inhibition of AIM2 inflammasome activation in C57 mouse BMDM cells assessed as reduction in IL-1beta secretion at 5 uM preincubated with LPS for 3 hrs followed by poly(dA:dT) stimulation for 4 hrs by Western blot analysis; type: cell-based
T1 sequence (whole entry): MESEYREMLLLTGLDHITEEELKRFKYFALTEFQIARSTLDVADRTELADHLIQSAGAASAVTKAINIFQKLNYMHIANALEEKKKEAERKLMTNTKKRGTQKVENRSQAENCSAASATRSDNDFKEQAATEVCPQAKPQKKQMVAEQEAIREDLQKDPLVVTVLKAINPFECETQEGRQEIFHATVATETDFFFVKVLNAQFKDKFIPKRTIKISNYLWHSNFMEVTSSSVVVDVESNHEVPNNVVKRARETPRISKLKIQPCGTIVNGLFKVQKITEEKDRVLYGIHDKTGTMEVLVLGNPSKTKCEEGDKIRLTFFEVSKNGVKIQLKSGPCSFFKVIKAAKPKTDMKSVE

[2] = target: NLR family CARD domain-containing protein 4 (Mus musculus) (UniProt Q3UP24); assay: Inhibition of NLRC4 inflammasome activation in C57 mouse BMDM cells assessed as reduction in IL-1beta secretion at 5 uM preincubated with LPS for 3 hrs followed by Salmonella typhimurium stimulation for 2 hrs by Western blot analysis; type: cell-based
Chain of NLR family CARD domain-containing protein 4 (Mus musculus) (Q3UP24 whole entry, the tested form may be a part): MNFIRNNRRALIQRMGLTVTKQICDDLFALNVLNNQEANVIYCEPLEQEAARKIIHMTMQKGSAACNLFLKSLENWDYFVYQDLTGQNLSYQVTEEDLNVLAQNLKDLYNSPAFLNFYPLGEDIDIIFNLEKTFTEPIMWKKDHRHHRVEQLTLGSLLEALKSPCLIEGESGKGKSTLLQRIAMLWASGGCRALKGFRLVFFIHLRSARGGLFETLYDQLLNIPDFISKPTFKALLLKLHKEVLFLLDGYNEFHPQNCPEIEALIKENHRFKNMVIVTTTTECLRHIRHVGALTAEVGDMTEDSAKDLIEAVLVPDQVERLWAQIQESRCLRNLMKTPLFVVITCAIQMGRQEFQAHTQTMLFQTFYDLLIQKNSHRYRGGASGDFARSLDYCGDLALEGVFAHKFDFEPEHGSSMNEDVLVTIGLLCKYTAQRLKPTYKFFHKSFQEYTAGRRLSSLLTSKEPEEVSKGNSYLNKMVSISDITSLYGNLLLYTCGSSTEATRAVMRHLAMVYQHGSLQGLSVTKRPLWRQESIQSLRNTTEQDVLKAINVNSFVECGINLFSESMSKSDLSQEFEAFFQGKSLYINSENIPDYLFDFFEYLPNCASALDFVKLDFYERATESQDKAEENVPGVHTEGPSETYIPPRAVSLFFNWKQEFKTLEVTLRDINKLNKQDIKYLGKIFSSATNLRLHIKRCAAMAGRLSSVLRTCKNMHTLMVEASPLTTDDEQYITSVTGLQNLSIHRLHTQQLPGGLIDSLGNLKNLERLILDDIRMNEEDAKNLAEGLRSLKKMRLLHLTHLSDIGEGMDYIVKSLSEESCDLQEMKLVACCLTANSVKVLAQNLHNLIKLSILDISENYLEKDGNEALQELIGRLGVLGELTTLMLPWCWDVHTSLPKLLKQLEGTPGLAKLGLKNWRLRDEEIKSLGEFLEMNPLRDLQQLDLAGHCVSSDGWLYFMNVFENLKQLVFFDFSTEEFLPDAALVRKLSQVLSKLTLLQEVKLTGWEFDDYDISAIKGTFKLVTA

Mus musculus [3] = assay: Anti-inflammatory activity in MSU-induced C57 mouse model of gouty arthritis assessed as reduction in foot swelling at 10 to 30 mg/kg, ip preadministered with compound for 3 days followed by MSU injection and measured after 24 hrs; type: functional, organism-based; settings: dose 10-30 mg/kg, time 4.0 day
[4] = target: NACHT, LRR and PYD domains-containing protein 3 (Mus musculus) (UniProt Q8R4B8); assay: (§1) Inhibition of NLRP3 inflammasome activation in LPS/Nigericin induced C57 mouse BMDM cells assessed as reduction in active caspase-1 in cell supernatant at 2.5 to 10 uM preincubated with LPS for 3 hrs followed by compound addition for 30 mins prior to nigericin addition and measured after 30 mins by Western blot analysis; type: cell-based; settings: dose 2.5-10 µM, time 1.0 hrs
Chain of NACHT, LRR and PYD domains-containing protein 3 (Mus musculus) (Q8R4B8 whole entry, the tested form may be a part): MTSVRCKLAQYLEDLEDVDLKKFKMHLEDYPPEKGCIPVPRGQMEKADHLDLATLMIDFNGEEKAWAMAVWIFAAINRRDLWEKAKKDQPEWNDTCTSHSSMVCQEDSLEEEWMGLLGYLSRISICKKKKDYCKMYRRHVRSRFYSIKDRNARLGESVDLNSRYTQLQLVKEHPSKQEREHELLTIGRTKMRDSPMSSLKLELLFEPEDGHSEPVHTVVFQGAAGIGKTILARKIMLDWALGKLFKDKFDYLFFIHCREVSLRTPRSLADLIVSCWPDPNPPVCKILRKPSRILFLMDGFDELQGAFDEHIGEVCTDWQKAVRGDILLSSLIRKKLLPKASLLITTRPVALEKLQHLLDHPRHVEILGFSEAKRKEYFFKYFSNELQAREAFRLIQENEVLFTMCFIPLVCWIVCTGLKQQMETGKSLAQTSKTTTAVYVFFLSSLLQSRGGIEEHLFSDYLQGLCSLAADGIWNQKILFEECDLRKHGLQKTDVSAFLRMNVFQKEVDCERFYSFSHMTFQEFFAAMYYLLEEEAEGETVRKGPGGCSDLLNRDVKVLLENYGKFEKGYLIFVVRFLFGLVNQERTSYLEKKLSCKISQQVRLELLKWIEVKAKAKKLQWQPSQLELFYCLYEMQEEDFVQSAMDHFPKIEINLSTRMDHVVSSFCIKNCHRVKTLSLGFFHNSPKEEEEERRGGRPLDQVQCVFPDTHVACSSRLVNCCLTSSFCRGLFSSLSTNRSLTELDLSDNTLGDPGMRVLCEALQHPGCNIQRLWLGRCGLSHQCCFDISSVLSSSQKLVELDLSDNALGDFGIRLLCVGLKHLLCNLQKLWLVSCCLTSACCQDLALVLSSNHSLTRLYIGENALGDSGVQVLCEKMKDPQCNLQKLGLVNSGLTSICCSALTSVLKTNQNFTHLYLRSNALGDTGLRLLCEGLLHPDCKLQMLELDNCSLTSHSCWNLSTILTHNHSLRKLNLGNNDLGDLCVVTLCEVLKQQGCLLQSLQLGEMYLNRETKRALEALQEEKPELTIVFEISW

[5] = target: T2, NACHT, LRR and PYD domains-containing protein 3 (Homo sapiens, UniProt Q96P20); assay: (§2) Inhibition of NLRP3 inflammasome activation in […]-differentiated human THP-1 cells assessed as effect on chloride efflux at 2.5 to 10 uM preincubated with LPS for 3 hrs followed by compound addition for 30 mins prior to nigericin addition and measured after 30 mins by fluorescence based analysis; type: cell-based; settings: dose 2.5-10 µM, time 1.0 hrs
T2 sequence (Q96P20 whole entry, the tested form may be a part): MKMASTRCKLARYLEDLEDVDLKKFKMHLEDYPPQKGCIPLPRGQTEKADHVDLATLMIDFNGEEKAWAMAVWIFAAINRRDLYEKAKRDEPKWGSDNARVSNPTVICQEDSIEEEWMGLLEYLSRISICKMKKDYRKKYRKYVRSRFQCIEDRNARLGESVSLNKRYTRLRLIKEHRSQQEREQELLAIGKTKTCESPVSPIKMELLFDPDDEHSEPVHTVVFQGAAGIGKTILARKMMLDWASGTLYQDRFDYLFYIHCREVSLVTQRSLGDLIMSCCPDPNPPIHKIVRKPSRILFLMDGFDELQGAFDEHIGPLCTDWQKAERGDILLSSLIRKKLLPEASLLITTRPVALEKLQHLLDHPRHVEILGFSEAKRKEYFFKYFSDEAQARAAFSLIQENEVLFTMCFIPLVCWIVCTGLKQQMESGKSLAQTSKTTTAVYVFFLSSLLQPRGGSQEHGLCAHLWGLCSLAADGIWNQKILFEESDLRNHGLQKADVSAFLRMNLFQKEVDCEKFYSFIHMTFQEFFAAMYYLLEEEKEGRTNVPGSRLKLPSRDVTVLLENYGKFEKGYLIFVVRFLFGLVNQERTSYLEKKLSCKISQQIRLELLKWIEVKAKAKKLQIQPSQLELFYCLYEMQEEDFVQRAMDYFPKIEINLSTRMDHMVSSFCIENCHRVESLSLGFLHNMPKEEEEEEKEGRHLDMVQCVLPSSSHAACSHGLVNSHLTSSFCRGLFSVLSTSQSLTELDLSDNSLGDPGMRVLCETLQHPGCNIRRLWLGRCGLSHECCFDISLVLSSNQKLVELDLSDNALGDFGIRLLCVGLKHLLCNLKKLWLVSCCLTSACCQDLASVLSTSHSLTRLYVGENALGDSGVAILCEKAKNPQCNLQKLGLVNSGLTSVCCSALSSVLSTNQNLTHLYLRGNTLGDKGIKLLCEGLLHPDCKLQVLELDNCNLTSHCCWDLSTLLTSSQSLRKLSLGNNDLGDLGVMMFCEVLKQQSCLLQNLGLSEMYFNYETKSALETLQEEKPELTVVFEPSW

[6] = target: NACHT, LRR and PYD domains-containing protein 3 (Mus musculus) (UniProt Q8R4B8); assay: (§3) Inhibition of NLRP3 inflammasome assembly in C57 mouse BMDM cells assessed as effect on ASC binding at 2.5 to 10 uM preincubated with LPS for 3 hrs followed by compound addition for 30 mins prior to nigericin addition and measured after 30 mins by immunoprecipitation; type: cell-based; settings: dose 2.5-10 µM, time 1.0 hrs
[7] = target: NACHT, LRR and PYD domains-containing protein 3 (Mus musculus) (UniProt Q8R4B8); assay: as §1, with “IL-1beta maturation” for “active caspase-1”; type: cell-based; settings: dose 2.5-10 µM, time 1.0 hrs
[8] = target: T1, Interferon-inducible protein AIM2 (Mus musculus); assay: Inhibition of AIM2 inflammasome activation in C57 mouse BMDM cells assessed as reduction in caspase-1 maturation at 5 uM preincubated with LPS for 3 hrs followed by poly(dA:dT) stimulation for 4 hrs by Western blot analysis; type: cell-based
[9] = target: NACHT, LRR and PYD domains-containing protein 3 (Mus musculus) (UniProt Q8R4B8); assay: as §1, with “intracellular NLRP3 expression” for “active caspase-1”; type: cell-based; settings: dose 2.5-10 µM, time 1.0 hrs
[10] = target: NACHT, LRR and PYD domains-containing protein 3 (Mus musculus) (UniProt Q8R4B8); assay: as §1, with “NEK7 expression” for “active caspase-1”; type: cell-based; settings: dose 2.5-10 µM, time 1.0 hrs
[11] = target: NACHT, LRR and PYD domains-containing protein 3 (Mus musculus) (UniProt Q8R4B8); assay: Inhibition of NLRP3 inflammasome activation in LPS/Nigericin induced C57 mouse BMDM cells assessed as reduction in […] preincubated with LPS for 3 hrs followed by compound addition for 30 mins prior to nigericin addition and measured after 30 mins by PI/Hoechst 33342 staining based analysis; type: cell-based; settings: time 1.0 hrs
[12] = target: NACHT, LRR and PYD domains-containing protein 3 (Mus musculus) (UniProt Q8R4B8); assay: as §3, with “reduction in higher order complex cross-linking” for “effect on ASC binding”, “ASC oligomerization based blotting analysis” for “immunoprecipitation”; type: cell-based; settings: dose 2.5-10 µM, time 1.0 hrs
Mus musculus [13] = assay: Anti-inflammatory activity in MSU-induced C57 mouse model of acute peritonitis assessed as reduction in IL-1beta expression preadministered intraperitoneally with compound for 3 days followed by MSU injection and measured after 6 hrs by ELISA; type: functional, organism-based; settings: dose 5-30 mg/kg, route ip, time 78.0 hrs
[14] = target: T2, NACHT, LRR and PYD domains-containing protein 3; assay: Inhibition of NLRP3 inflammasome activation in PMA-differentiated human THP-1 cells assessed as reduction in IL-1beta secretion pre-stimulated with PMA for 24 hrs followed by compound addition and measured after 30 mins by ELISA; type: cell-based
[15] = target: NACHT, LRR and PYD domains-containing protein 3 (Mus musculus) (UniProt Q8R4B8); assay: Inhibition of NLRP3 inflammasome activation in C57 mouse BMDM cells assessed as reduction in IL-1beta secretion at 5 uM preincubated with LPS for 3 hrs followed by compound addition for 30 mins prior to MSU addition and measured after 4 hrs by Western blot analysis; type: cell-based; settings: time 4.5 hrs
[16] = target: NACHT, LRR and PYD domains-containing protein 3 (Mus musculus) (UniProt Q8R4B8); assay: Binding affinity to NLRP3 in mouse J774.A1 cells assessed as reduction in NLRP3 degradation incubated for 1 hrs at 48 to 81 degreeC by CETSA based Western blot analysis; type: cell-based
[17] = Stability in human liver microsomes assessed as half-life at 1.5 uM measured upto 45 mins in presence of NADPH by LC-MS/MS analysis; type: ADME, Microsome
[18] = target: T2, NACHT, LRR and PYD domains-containing protein 3; assay: as §2, with “ROS production” for “chloride efflux”, “at” for “at 2.5 to”, “MitoSOX dye/Hoechst 33342 staining” for “fluorescence”, “based confocal microscopic” for “based”; type: cell-based; settings: time 1.0 hrs
[19] = target: NACHT, LRR and PYD domains-containing protein 3 (Mus musculus) (UniProt Q8R4B8); assay: Inhibition of NLRP3 inflammasome activation in C57 mouse BMDM cells assessed as reduction in IL-1beta secretion at 5 uM preincubated with LPS for 3 hrs followed by compound addition for 30 mins prior to ATP addition and measured after 30 mins by Western blot analysis; type: cell-based; settings: time 1.0 hrs
BMDM = assay: Cytotoxicity against C57 mouse BMDM cells assessed as reduction in cell viability upto 50 uM incubated for 24 hrs by CCK8 assay; type: toxicity, cell-based

inhibition [1]: inactive | inhibition [2]: inactive | inhibition [4]: Active | inhibition [5]: inactive | inhibition [6]: Active | inhibition [7]: Active | inhibition [8]: inactive | inhibition [9]: inactive | inhibition [10]: inactive | inhibition [11]: Active | inhibition [12]: Active | IC50 [14]: 2.3 µM | inhibition [15]: Active | Activity [16]: Active | half-life at 1.5 µM [17]: 2.07 h | inhibition [18]: inactive | inhibition [19]: Active
Structure (SMILES): COc1ccc(N2C(=O)/C(=C\c3ccccc3C(F)(F)F)SC2=S)cc1
Activity (Mus musculus [3]): Active | Activity (Mus musculus [13]): Dose-Dependent Effect | Activity (BMDM): Non-Toxic
